# From BindingDB's records for patent US20250127913 (Lycia Therapeutics, 2025)
# Columns and labels:
# Folate receptor beta [1] = biological target: T1, Folate receptor beta (Homo sapiens, UniProt P14207); assay: Folate Receptor Binding Assay
# Procedure: Table 15: Folate receptor binding was measured in black 96-well plates using a fluorescence polarization assay. A fluorescent probe consisting of a folate analog linked to Cy5 (FR-Cy) was custom synthesized. Test compounds were resuspended in DMSO and 3-fold serial dilutions were made from 300-0.015 μM (100× final concentrations). Binding reactions were conducted in 200 μl final volume in 20 mM Hepes (pH 7.5) 250 mM NaCl 0.0150 Tween-20 1% DMSO with 2.5 nM folate receptor beta (Acro Biosystems) and 2 nM probe. Fluorescence polarization was measured using λex=620 nm, λem=688 nm on an Envision plate reader (Perkin Elmer) after 2 hr incubation time. Dose responses were conducted in duplicate and normalized to the response with DMSO (high) and 1 μM folic acid (low) on each plate. IC50 values were determined by fitting to 4-parameter curves in GraphPad Prism.
# Folate receptor beta [2] = biological target: T1, Folate receptor beta; assay: Folate Receptor SPR Assay
# Procedure: Table 16: Folate receptor SPR binding assays were conducted on a Biacore 8K instrument (Cytiva) using biotinylated folate receptor beta (Acro Biosystems). Briefly, folate receptor was immobilized at -550 RU on a streptavidin chip (Cytiva) in 10 mM HEPES pH 7.5, 150 mM NaCl, 0.05% Tween 20. Multi-cycle kinetic studies were conducted with 8 compound concentrations using 2-fold dilutions in 10 mM HEPES pH 7.5, 150 mM NaCl, 0.05 % Tween 20, 2% DMSO at 25° C. A flow rate or 75 μl/mmn with an association time of 120 s and a dissociation time of 600 s were used. Surfaces were regenerated with 4 M MgCl2 at 30 μl/min for 30 s. Data were fit to a 1:1 model to determine the reported binding parameters.
# Tumor necrosis factor = Tumor necrosis factor (Homo sapiens, UniProt P01375); assay: TNFα Binding Assay
# Chain of Tumor necrosis factor (P01375 whole entry): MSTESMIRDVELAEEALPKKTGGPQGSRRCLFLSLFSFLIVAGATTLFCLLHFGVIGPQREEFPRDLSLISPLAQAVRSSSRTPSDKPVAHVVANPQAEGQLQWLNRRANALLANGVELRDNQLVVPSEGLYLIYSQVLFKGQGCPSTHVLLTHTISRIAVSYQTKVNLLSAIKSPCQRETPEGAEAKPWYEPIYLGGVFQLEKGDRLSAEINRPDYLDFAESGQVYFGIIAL
# Procedure: Table 15: TNFα binding was measured in black 96-well plates using a time-resolved FRET assay using a previously described fluorescence acceptor TNFα probe (Xiao et al J. Med. Chem. 2020). Biotinylated TNFα was purchased from Acro Biosystems. Binding reactions were conducted in 20 mM Hepes (pH 7.5) 10 mM MgCl2 0.015% Tween-20 0.05 mg/ml BSA 2% DMSO with 1 nM TNFα 0.5 nM Streptavidin-Tb and 80 nM probe. Test compounds were resuspended in DMSO and 3-fold serial dilutions were made at 100× final concentrations. Fluorescence was measured using λex=340 nm, λem=490, 520 nm on an SpectraMax M5e plate reader (Molecular Devices) after 16 hr incubation time. Dose responses were conducted in duplicate and normalized to the response with DMSO (high) and 100 nM (R)-3-(1-((3-chloro-7-fluoro-6-(2-(2-hydroxypropan-2-yl)pyrimidin-5-yl)-2-methyl-1,5-naphthyridin-4-yl)amino)ethyl)-4-fluorobenzonitrile (low) on each plate. IC50 values were determined by fitting to 4-parameter curves in GraphPad Prism.
# T1 sequence (P14207 whole entry): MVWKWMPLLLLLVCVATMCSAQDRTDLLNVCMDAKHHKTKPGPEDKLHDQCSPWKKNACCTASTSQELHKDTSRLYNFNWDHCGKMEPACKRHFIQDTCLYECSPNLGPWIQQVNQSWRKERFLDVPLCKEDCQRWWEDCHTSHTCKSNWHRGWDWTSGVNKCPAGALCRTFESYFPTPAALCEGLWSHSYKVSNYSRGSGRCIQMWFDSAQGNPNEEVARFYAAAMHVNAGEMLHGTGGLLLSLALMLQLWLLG
smiles,measurement,setting,value
"Cc1nc2cc(F)c(-c3cnc(N4CCN(C(=O)COCCn5cc(COCCOCCOCCOCCNC(=O)CC[C@H](NC(=O)[C@H]6CC[C@H](NCc7cnc8nc(N)nc(O)c8n7)CC6)C(=O)O)nn5)CC4)nc3)nc2c(N[C@H](C)c2ccccc2F)c1Cl [US20250127913, Compound I-91]",IC50,Folate receptor beta [1],138 nM
same,Kd,Folate receptor beta [2],0.201 nM
same,IC50,Tumor necrosis factor,17.5 nM
